Results on 2 compounds are retold here after US20260167637A1, “NLRP3 INFLAMMASOME INHIBITOR AND USE THEREOF” (TransThera Sciences (Nanjing), Inc., priority 2022, published 2026).

Series [1] can be described thus: Pharmacokinetic study in male SD rats. Format: in vivo. To be noted: rat, plasma; for clearance: read-out: Cl—obs iv (clearance rate) (converted); for Vd: read-out: Vss iv (distribution volume); for bioavailability: po 5 mg/kg vs iv 1 mg/kg, read-out: F% (absolute bioavailability); for Tmax: median, read-out: Tmax po (time to peak plasma concentration); for Cmax: read-out: Cmax po (peak concentration). As to the method: Experimental Example 4: Pharmacokinetic Study of Compounds in Male SD Rats
The compounds were prepared into solutions using a mixed vehicle composed of 5% dimethyl sulfoxide, 20% (30% solutol), and 75% normal saline. The compound solutions were intragastrically administered to male SD rats at a dose of 5.0 mg/kg, and the blood collection time points were: 15 min, 30 min, 1 h, 2 h, 4 h, 6 h, 8 h, 10 h, and 24 h.
The compounds were prepared into solutions using a mixed vehicle composed of 5% dimethyl sulfoxide, 20% (30% solutol), and 75% normal saline. The compound solutions were intravenously injected into male SD rats at a dose of 1.0 mg/kg, and the blood collection time points were: 5 min, 15 min, 30 min, 1 h, 2 h, 4h, 6 h, 8h, 10 h, and 24 h.
Intravenous catheterization was performed on the animals the day before the administration. After the administration, blood samples of about 300 μL were collected from the jugular vein and placed into anticoagulation tubes containing EDTA-K2. The blood samples were centrifuged at 5000 rpm at 4° C. for 10 min to give plasma samples. The plasma samples were prepared within 30 min after blood collection. The plasma samples were stored in a −80° C. freezer before testing.

Series [2] is described as follows: Pharmacokinetic study in mice. Format: in vivo, female C57BL/6J mice. To be noted: female, C57BL/6J, mouse, plasma; for clearance: read-out: Cl—obs iv (clearance rate) (converted); for Vd: read-out: Vss iv (distribution volume); for bioavailability: po 10 mg/kg vs iv 5 mg/kg, read-out: F% (absolute bioavailability); for Tmax: median, read-out: Tmax po (time to peak plasma concentration); for Cmax: read-out: Cmax po (peak concentration). The method in brief: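 Female C57BL/6J mice received compound in 5% DMSO/20% (30% solutol)/75% saline at 10 mg/kg intragastrically (sampling 15 min–24 h) or 5 mg/kg intravenously (sampling 5 min–24 h). Plasma was acetonitrile-precipitated with tolbutamide internal standard and analysed by LC-MS/MS. PK parameters were derived by NCA, with Tmax as a median.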

Where [3] appears, read: iv 1 mg/kg, read-out: AUClast iv (0-24 h).
[4] abbreviates: iv 1 mg/kg, read-out: tz1/2 iv (terminal half-life) (converted).
The mark [5] stands for this setting: po 5 mg/kg, read-out: AUClast po (0-24 h).
Where [6] appears, read: po 5 mg/kg, read-out: tz1/2 po (terminal half-life) (converted).
[7] abbreviates: iv 5 mg/kg, read-out: AUClast iv (0-24 h).
[8] abbreviates: iv 5 mg/kg, read-out: tz1/2 iv (terminal half-life) (converted).
[9] abbreviates: po 10 mg/kg, read-out: AUClast po (0-24 h).
Setting [10] is: po 10 mg/kg, read-out: tz1/2 po (terminal half-life) (converted).

As a reminder, the clearance is the rate of elimination divided by the concentration. For orientation: bioavailability means dose-corrected exposure relative to a reference, in per cent.

For `C#Cc1ccc(-c2nnc(N[C@@H]3CCCN(C)C3)c(=O)n2C)c(O)c1` [Compound 23, (R)-3-(4-ethynyl-2-hydoxyphenyl)-4-methyl-6-((1-methylpiperidin-3-yl)amino)-1,2,4-triazin-5(4H)-one], the AUC(0-t) in series [1] (setting [3]) was determined as 1860 ng·h/mL; in series [1] (setting [5]), 8480 ng·h/mL; in series [2] (setting [7]), 3230 ng·h/mL; in series [2] (setting [9]), 5530 ng·h/mL. Moreover, the values for the clearance in series [1] (iv 1 mg/kg) and in series [2] (iv 5 mg/kg) were 7.95 mL/min/kg and 25.7 mL/min/kg, respectively. The Vd in series [1] (iv 1 mg/kg) came out at 2.15 L/kg; in series [2] (iv 5 mg/kg), 1.65 L/kg. Further, the half-life in series [1] (setting [4]) is 3.24 h; in series [1] (setting [6]), 3.54 h; in series [2] (setting [8]), 0.92 h; in series [2] (setting [10]) it was 0.983 h. Moreover, the bioavailability is 81% in series [1] and 85.7% in series [2]. For the same compound, the Tmax in series [1] (po 5 mg/kg) and in series [2] (po 10 mg/kg) was 0.5 h each time. Besides, the results for the Cmax in series [1] (po 5 mg/kg) and in series [2] (po 10 mg/kg) were 1260 ng/mL and 3030 ng/mL, respectively.

Consider `C#Cc1ccc(-c2nnc(N[C@@H]3CCCN(CCO)C3)cc2C2CC2)c(O)c1` [Compound 45, (R)-2-(4-Cyclopropyl-6-((1-(2-hydroxyethyl)piperidin-3-yl)amino)pyridazin-3-yl)-5-ethynylphenol], for which the AUC(0-t) came out at 1920 ng·h/mL in series [1] (setting [3]), 6840 ng·h/mL in series [1] (setting [5]), 11400 ng·h/mL in series [2] (setting [7]) and 19100 ng·h/mL in series [2] (setting [9]). For the same compound, the figures for the clearance in series [1] (iv 1 mg/kg) and in series [2] (iv 5 mg/kg) were 8.38 mL/min/kg and 7.27 mL/min/kg, respectively. In addition, the results for the Vd in series [1] (iv 1 mg/kg) and in series [2] (iv 5 mg/kg) were 3.28 L/kg and 1.47 L/kg, respectively. The half-life in series [1] (setting [4]) is 5.63 h; in series [1] (setting [6]), 5.19 h; in series [2] (setting [8]), 3.57 h; in series [2] (setting [10]), 3.18 h. For the same compound, the bioavailability in series [1] is 71.5%; in series [2] it was 83.7%. Moreover, the Tmax in series [1] (po 5 mg/kg) amounted to 4 h; in series [2] (po 10 mg/kg), 1 h. The Cmax in series [1] (po 5 mg/kg) came out at 629 ng/mL; in series [2] (po 10 mg/kg) it was 4130 ng/mL.
